Test results as given in US20110152166A1, “METHOD OF MODULATION OF PROTEIN PHOSPHORYLATION-DEPENDENT CONFORMATIONAL TRANSITIONS WITH LOW MOLECULAR WEIGHT COMPOUNDS” (priority 2006, published 2011).
Ends that are not written are not given here.

How the values were obtained:
[1] = test system: GST-S6K1-T2[Thr412Glu] in HEK 293 cells; test: S6K activity and activation loop phosphorylation in transfected HEK 293 cells; format: cell-based, human; settings: 200 μM, 90 minutes
Protocol: (§1) FIG. 4—Small compounds designed to bind the HM/PIF-pocket of PDK1 can block the PDK1-dependent phosphorylation and activation of substrates that require docking to the HM/PIF-pocket of PDK1. (A) Effect of compound 1 (100 and 200 μM) on PDK1 phosphorylation of its substrate S6K1. The phosphorylation reaction was performed in vitro with [γ^32P]ATP and then separated on SDS-PAGE followed by exposure to phosphorimager. The radioactive band corresponding to phosphorylated GST-56K1-T2[Thr412Glu] (S6K[412E]) is indicated. (B) PDK1 or PDK1[Val127Leu] (PDK1[V127L]) were pre-incubated with GST-[…]N-SGK1 [Ser422Asp] […] (C) The activity of S6K was measured in vitro after glutathione sepharose purification; aliquots of purified proteins were separated on SDS-PAGE and the level of activation loop phosphorylation was visualized by immunoblotting using phospho-specific antibodies that recognize the phosphorylated activation loop, followed by stripping of the membranes and re-probing with anti-GST to verify the presence of equal amounts of protein. (D) Cells overexpressing GST-56K1-T2[Thr412Glu] were treated as in (C) but S6K activity was measured in vitro after immunoprecipitation of the GST-fusion protein with anti-GST antibodies; the level of S6K expression was analysed by western-blotting of crude extracts. […]

[2] = target: T1, PDK1 phosphorylation of GST-S6K1-T2[Thr412Glu] (Homo sapiens, UniProt O15530); test: PDK1 phosphorylation of substrate S6K1 in vitro; format: biochemical; settings: compound 100 and 200 μM
T1 construct: GST (N); made in house; host or cells: HEK293
Protocol: as §1

GST-PDK1 [Phe157Leu] = target: T2, GST-PDK1 [Phe157Leu] (Homo sapiens, UniProt O15530, F157L); test: PDK1 activity assay with T308tide; format: biochemical
T2 construct: different protein constructs, comprising the full length protein or the catalytic domain alone; made in house; host or cells: HEK293 cells (pEBG-2T-PDK1 mutant)
T2 sequence (O15530 whole entry F157L, the tested form may be a part): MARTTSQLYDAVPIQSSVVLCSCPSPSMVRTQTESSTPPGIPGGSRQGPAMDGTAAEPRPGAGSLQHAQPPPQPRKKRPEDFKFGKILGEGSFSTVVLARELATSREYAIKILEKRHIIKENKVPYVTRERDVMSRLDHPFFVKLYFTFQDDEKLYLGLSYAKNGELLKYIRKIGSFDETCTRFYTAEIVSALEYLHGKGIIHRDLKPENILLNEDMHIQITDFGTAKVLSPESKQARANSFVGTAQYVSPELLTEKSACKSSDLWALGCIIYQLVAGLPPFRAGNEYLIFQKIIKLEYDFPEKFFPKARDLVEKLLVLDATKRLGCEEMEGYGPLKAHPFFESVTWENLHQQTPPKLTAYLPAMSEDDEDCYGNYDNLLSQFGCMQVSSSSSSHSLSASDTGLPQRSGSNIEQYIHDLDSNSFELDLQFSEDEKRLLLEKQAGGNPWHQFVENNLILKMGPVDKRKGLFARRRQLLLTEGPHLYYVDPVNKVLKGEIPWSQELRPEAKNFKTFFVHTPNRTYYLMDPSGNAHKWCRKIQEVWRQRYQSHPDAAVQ

T1 sequence (O15530 whole entry, change not shown): as the sequence (O15530 whole entry F157L, the tested form may be a part) above, with L157F counted along it

| Compound | S6K1-T2[Thr412Glu] activity after cell treatment (in words) [1] | phosphorylation at the activation loop of S6K1-T2[Thr412Glu] (in words) [1] | PDK1-catalyzed phosphorylation of S6K1 (in words) [2] | AC50 (GST-PDK1 [Phe157Leu]) [nM] | Max. activity (GST-PDK1 [Phe157Leu]) [U/mg] |
| --- | --- | --- | --- | --- | --- |
| O=C(O)CSC(CC(=O)c1ccc(Cl)cc1)c1ccccc1 (centres unmarked) [Compound 1] | decrease | decrease in the phosphorylation at the activation loop | decreased | – | – |
| REPRILSEEEQEMFRDFDYIADWC [PIFtide, reference compound] | – | – | – | 320 ± 190 | 1.4 ± 0.14 |
